{"source": "paper PMC7766697", "about": "“Toxicological Screening of Four Bioactive Citroflavonoids: In Vitro, In Vivo, and In Silico Approaches” (Molecules, 2020)", "key": {"[1]": {"system": "Sprague-Dawley rats", "parameters": "method as in PMID 28662177", "conditions": "sub-chronic oral, 13 weeks, cited from earlier work"}, "[2]": {"system": "Wistar rats", "conditions": "rats; for ALB (albumin) / ALB/GL Ratio / ALT / AST / DB (direct bilirubin) / GL (globulin) / GLU (glucose) / IB (indirect bilirubin) / TB (total bilirubin) / TP (total protein): after 14 days, plasma"}, "[3]": {"system": "Wistar rats", "type": "in vivo", "conditions": "rats, after 14 days", "description": "(§1) Rats used for this experiment were fasted for 8 h and were organized into two groups of three rats for each dose and each flavonoid. Likewise, the control group received isotonic 0.9% sodium chloride solution (dose: 5 mL/kg). All rats were closely observed for toxic symptoms and behavioral changes (sedation, hyperactivity, writhing, pruritus, feeding and drinking habits, general morphological changes, and bite legs) for 30 min and periodically 24 h post-administration. Animals were observed daily (14 days) and mortality rate recorded. A LD50 was estimated according to criteria of OECD guide 423.\nThe rats’ body weight in each group was determined and recorded before the treatment initiation and after 14 days. Changes in the body weight at the end of the 14 days were calculated. Once observation time was completed and to detect any adverse effect, blood samples were collected by cardiac puncture after the previous fasting of 8 h. For this purpose, rats were anesthetized by intraperitoneally 50 mg/kg sodium pentobarbital. The liver was carefully extracted, rinsed in normal saline, drained on blotting paper, and carefully examined for tissue lesions. In addition, organ weight was determined.\nRat blood samples were analyzed by a hematology auto-analyzer system (Sysmex XS-1000i®, SYSMEX®, Oak Ridge, TN, USA). The parameters quantified on this stage were: blood count-packed cell volume (PCV), red blood cell (RBC) count, hemoglobin (Hb), platelet count, white blood cell (WBC) count, mean cell hemoglobin concentration (MCHC), mean red cell volume (MCV), mean cell hemoglobin (MCH), prothrombin time (PT), and activated partial thromboplastin time (aPTT)."}, "[4]": {"system": "Sprague Dawley rats", "parameters": "method as in PMID 30991075", "conditions": "early report; cited from earlier work"}, "[5]": {"system": "VERO cells", "test": "MTT-based cytotoxicity assay in VERO cells", "type": "cell-based, green Monkey", "conditions": "48 h, 125 to 750 µg/mL (QRT effect at 250–750 µg/mL)", "description": "(§2) VERO and MDCK cell lines were acquired from American Type Culture Collection (ATCC, Manassas, VA, USA). […] In vitro cytotoxicity assay was performed on Madin-Darby Canine Kidney Epithelial Cells (MDCK) and green Monkey Kidney Cells (VERO) by MTT-based assay. Briefly, cells were seeded in 96-well plates at a density of 2.5 × 10^3 cells/well. […] The absorbance was measured after 45 min using a microplate reader (Multiskan Asent®) at a wavelength of 550 nm. The criteria for categorizing cytotoxicity against MDCK and VERO cells are based on the U.S. National Cancer Institute (NCI). The criteria comprise as follow: […] All results were expressed as mean ± standard error. The results from the in vivo and in vitro experiments were analyzed using software Origin® 8.0. […] The IC50 (half inhibitory concentration) values were calculated in Origin software®, (Northampton, MA, USA) and one-way ANOVA analysis was compared with cisplatin as the control."}, "[6]": {"system": "MDCK cells", "test": "MTT-based cytotoxicity assay in MDCK cells", "type": "cell-based, Canine", "conditions": "48 h, 125 to 750 µg/mL (QRT effect at 250 and 500 µg/mL)", "description": "as §2"}, "[7]": {"system": "Wistar rats", "test": "Acute oral toxicity, OECD Test No. 423 (mortality, signs, LD50, body weight)", "type": "in vivo", "conditions": "oral 300 mg/kg, days 7 and 10", "description": "Female Wistar rats (250 g b.w.) were used. These animals were obtained from Bioterium from División de Ciencias de la Salud at the Universidad de Quintana Roo. They were maintained under standard environmental conditions (22 ± 3 °C, 12 h/12 h light/dark cycle), and free access to standard rodent diet and water ad libitum. All animal procedures were conducted under our Federal Regulations for Animal Experimentation and Care and were approved by the Institutional Animal Care and Use Committee of the “Universidad Juárez Autónoma de Tabasco” university (Code:2017-001, Approved: October 2017). Rats were acclimatized for 1 week before the start of experimental procedures.\nThe half lethal dose (LD50) was estimated using the fixed-dose method described in OECD Guidelines for the Testing of Chemicals (Test No. 423: Acute Oral Toxicity-Class Method; OECD, 2001). […] This method allowed a step-by-step assay according to the chosen dose to begin the experiment. Subsequently, depending on the presence or absence of mortality, the decision to continue within the next step is taken, so fewer experimental animals should be used.\nas §1\nThe rats’ body weight in each group was determined and recorded before the treatment initiation and after 14 days. Changes in the body weight at the end of the 14 days were calculated. Once observation time was completed and to detect any adverse effect, blood samples were collected by cardiac puncture after the previous fasting of 8 h. […] In addition, organ weight was determined."}}, "note": "Read-outs that look alike come from different tables or passages of the source.", "data": [{"smiles": "COc1ccc([C@@H]2CC(=O)c3c(O)cc(O[C@@H]4O[C@H](CO[C@@H]5O[C@@H](C)[C@H](O)[C@@H](O)[C@H]5O)[C@@H](O)[C@H](O)[C@H]4O)cc3O2)cc1O", "note": "[HESP, hesperidin]", "values": [{"measurement": "weight gain", "setting": "[1]; 1000 mg/kg", "result": "did at 1000 mg/kg"}, {"measurement": "weight gain", "setting": "[1]; 250 and 500 mg/kg", "result": "did not modify weight gain"}, {"measurement": "ALB (albumin)", "setting": "[2]; oral 300 mg/kg", "result": "4.15 ± 0.20", "unit": "g/dL"}, {"measurement": "ALB/GL Ratio", "setting": "[2]; oral 300 mg/kg", "result": "2.36 ± 0.101"}, {"measurement": "ALT", "setting": "[2]; oral 300 mg/kg", "result": "33.78 ± 1.30", "unit": "IU/L"}, {"measurement": "AST", "setting": "[2]; oral 300 mg/kg", "result": "126.00 ± 13.18", "unit": "IU/L"}, {"measurement": "DB (direct bilirubin)", "setting": "[2]; oral 300 mg/kg", "result": "0.020 ± 0.005", "unit": "mg/dL"}, {"measurement": "GL (globulin)", "setting": "[2]; oral 300 mg/kg", "result": "1.76 ± 0.069", "unit": "g/dL"}, {"measurement": "GLU (glucose)", "setting": "[2]; oral 300 mg/kg", "result": "155.33 ± 18.71", "unit": "mg/dL"}, {"measurement": "IB (indirect bilirubin)", "setting": "[2]; oral 300 mg/kg", "result": "0.029 ± 0.003", "unit": "mg/dL"}, {"measurement": "TB (total bilirubin)", "setting": "[2]; oral 300 mg/kg", "result": "0.051 ± 0.002", "unit": "mg/dL"}, {"measurement": "TP (total protein)", "setting": "[2]; oral 300 mg/kg", "result": "5.91 ± 0.25", "unit": "g/dL"}, {"measurement": "ALB (albumin)", "setting": "[2]; oral 2000 mg/kg", "result": "4.20 ± 0.22", "unit": "g/dL"}, {"measurement": "ALB/GL Ratio", "setting": "[2]; oral 2000 mg/kg", "result": "2.38 ± 0.270"}, {"measurement": "ALT", "setting": "[2]; oral 2000 mg/kg", "result": "41.19 ± 2.83", "unit": "IU/L"}, {"measurement": "AST", "setting": "[2]; oral 2000 mg/kg", "result": "226.65 ± 44.80", "unit": "IU/L"}, {"measurement": "DB (direct bilirubin)", "setting": "[2]; oral 2000 mg/kg", "result": "0.018 ± 0.005", "unit": "mg/dL"}, {"measurement": "GL (globulin)", "setting": "[2]; oral 2000 mg/kg", "result": "1.80 ± 0.108", "unit": "g/dL"}, {"measurement": "GLU (glucose)", "setting": "[2]; oral 2000 mg/kg", "result": "192.06 ± 12.73", "unit": "mg/dL"}, {"measurement": "IB (indirect bilirubin)", "setting": "[2]; oral 2000 mg/kg", "result": "0.046 ± 0.010", "unit": "mg/dL"}, {"measurement": "TB (total bilirubin)", "setting": "[2]; oral 2000 mg/kg", "result": "0.060 ± 0.06", "unit": "mg/dL"}, {"measurement": "TP (total protein)", "setting": "[2]; oral 2000 mg/kg", "result": "5.99 ± 0.11", "unit": "g/dL"}, {"measurement": "glucose values vs control", "setting": "[2]; oral, doses tested, more evident at NAR 300 and 2000 mg/kg and NARGE 300 mg/kg", "result": "slightly amended glucose values"}, {"measurement": "APTT", "setting": "[3]; oral 300 mg/kg", "result": "28.53 ± 4.31", "unit": "s"}, {"measurement": "Basophils", "setting": "[3]; oral 300 mg/kg", "result": "2.13±1.74 103/µL"}, {"measurement": "Eosinophils", "setting": "[3]; oral 300 mg/kg", "result": "3.60±0.76 103/µL"}, {"measurement": "Erythrocytes", "setting": "[3]; oral 300 mg/kg", "result": "7.90±0.30 106/µL"}, {"measurement": "Hb", "setting": "[3]; oral 300 mg/kg", "result": "14.20 ± 0.37", "unit": "g/dL"}, {"measurement": "Hto", "setting": "[3]; oral 300 mg/kg", "result": "44.96±0.91", "unit": "%"}, {"measurement": "Leukocytes", "setting": "[3]; oral 300 mg/kg", "result": "4.50±0.89 103/µL"}, {"measurement": "Lymphocytes", "setting": "[3]; oral 300 mg/kg", "result": "72.27±4.36 103/µL"}, {"measurement": "MCH", "setting": "[3]; oral 300 mg/kg", "result": "18.00 ± 0.24", "unit": "pg"}, {"measurement": "MCHC", "setting": "[3]; oral 300 mg/kg", "result": "31.56 ± 0.64", "unit": "g/dL"}, {"measurement": "MCV", "setting": "[3]; oral 300 mg/kg", "result": "57.06 ± 1.87", "unit": "fL"}, {"measurement": "Monocytes", "setting": "[3]; oral 300 mg/kg", "result": "7.07±1.50 103/µL"}, {"measurement": "PT", "setting": "[3]; oral 300 mg/kg", "result": "17.86 ± 0.40", "unit": "s"}, {"measurement": "Platelets", "setting": "[3]; oral 300 mg/kg", "result": "720.00±125.23 105/µL"}, {"measurement": "RBCDW", "setting": "[3]; oral 300 mg/kg", "result": "17.00±0.61", "unit": "%"}, {"measurement": "APTT", "setting": "[3]; oral 2000 mg/kg", "result": "32.53 ± 3.93", "unit": "s"}, {"measurement": "Basophils", "setting": "[3]; oral 2000 mg/kg", "result": "0.00±0.00 103/µL"}, {"measurement": "Eosinophils", "setting": "[3]; oral 2000 mg/kg", "result": "3.67±0.54 103/µL"}, {"measurement": "Erythrocytes", "setting": "[3]; oral 2000 mg/kg", "result": "8.04±0.22 106/µL"}, {"measurement": "Hb", "setting": "[3]; oral 2000 mg/kg", "result": "14.20 ± 0.36", "unit": "g/dL"}, {"measurement": "Hto", "setting": "[3]; oral 2000 mg/kg", "result": "43.26±0.89", "unit": "%"}, {"measurement": "Leukocytes", "setting": "[3]; oral 2000 mg/kg", "result": "6.68±0.72 103/µL"}, {"measurement": "Lymphocytes", "setting": "[3]; oral 2000 mg/kg", "result": "77.33±3.24 103/µL"}, {"measurement": "MCH", "setting": "[3]; oral 2000 mg/kg", "result": "17.70 ± 0.24", "unit": "pg"}, {"measurement": "MCHC", "setting": "[3]; oral 2000 mg/kg", "result": "32.83 ± 0.35", "unit": "g/dL"}, {"measurement": "MCV", "setting": "[3]; oral 2000 mg/kg", "result": "53.86 ± 0.37", "unit": "fL"}, {"measurement": "Monocytes", "setting": "[3]; oral 2000 mg/kg", "result": "7.13±1.15 103/µL"}, {"measurement": "PT", "setting": "[3]; oral 2000 mg/kg", "result": "17.73 ± 0.50", "unit": "s"}, {"measurement": "Platelets", "setting": "[3]; oral 2000 mg/kg", "result": "628.66±28.31 105/µL"}, {"measurement": "RBCDW", "setting": "[3]; oral 2000 mg/kg", "result": "17.83±1.50", "unit": "%"}, {"measurement": "acute oral LD50", "setting": "[4]", "result": 4837.5, "unit": "mg/kg"}, {"measurement": "percentage viability / growth of cells", "setting": "[5]", "result": "did not change the percentage of growth"}, {"measurement": "percentage viability / growth of cells", "setting": "[6]", "result": "did not change the percentage of growth"}, {"measurement": "weight gain vs control", "setting": "[7]", "result": "considerable weight gain differences"}]}]}
